Test results: US8003648B2, “Heterocyclic GPR40 modulators” (Amgen Inc., priority 2006, dated 2011)

The compounds below were run against T1, human GPR40 (Homo sapiens, UniProt O14842) (assay: Cell-based aequorin assay using human GPR40). Conditions: activation of human GPR40; CHO cells stably transfected with GPR40 and Aequorin; 0.01% HSA; aequorin luminescence.
T1 construct: host or cells: CHO cells
Description: Cell-based aequorin assays were employed to characterize the modulatory activity of compounds on the GPR40 signaling pathway. In an exemplary assay, CHO cells were stably transfected with both GPR40 and Aequorin (Euroscreen). Cells were detached from the tissue culture dish with 2 mL of trypsin (0.25% (w/v)). Trypsinization was halted with 28 mL of Hanks Buffered Salt Solution containing 20 mM Hepes (H/HBSS) and 0.01% fatty acid-free human serum albumin (HSA). Coelantrazine is added to 1 ug/mL, and the cells were incubated for 2 hours at room temperature. Compounds were dissolved in DMSO for preparation of 10 mM stock solutions. Compounds were diluted in H/HBSS containing 0.01% HSA. Serial dilutions of the test compounds were prepared to determine dose response.
Aequorin luminescence measurements were made using an EG&G Berthold 96-well luminometer, and the response was measured over a 20 second interval after cells and compounds were mixed. The maximum relative light units was plotted to determine dose response. The EC50 (effective concentration to reach 50% maximal response) was determined from the dose response plot.
Table 1 presents representative data (EC50 values) obtained for exemplary compounds of the invention for the activation of human GPR40. […]

T1 sequence (O14842 whole entry): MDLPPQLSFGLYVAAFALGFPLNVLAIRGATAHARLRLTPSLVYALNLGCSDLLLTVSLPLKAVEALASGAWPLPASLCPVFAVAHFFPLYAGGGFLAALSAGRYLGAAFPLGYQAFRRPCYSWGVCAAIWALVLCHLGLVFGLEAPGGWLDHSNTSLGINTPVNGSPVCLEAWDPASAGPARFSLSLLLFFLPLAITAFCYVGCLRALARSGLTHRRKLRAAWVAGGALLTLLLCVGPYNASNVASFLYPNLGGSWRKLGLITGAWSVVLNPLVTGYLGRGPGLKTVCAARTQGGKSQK

SMILES	EC50 [nM]
Cc1c(Cl)cccc1-c1cccc(COc2ccc(C(CC(=O)O)c3ccon3)cc2)c1 (stereo not shown) [Example 1, 3-(4-(3-(3-Chloro-2-methylphenyl)benzyloxy)phenyl)-3-(isoxazol-3-yl)propanoic acid]	10 to 100
O=C(O)C[C@@H](c1ccc(OCc2cccc(-c3ccc(C(F)(F)F)cc3)c2)cc1)c1ccon1 [Example 2, (S)-3-(4-(3-(4-(Trifluoromethyl)phenyl)benzyloxy)phenyl)-3-(isoxazol-3-yl)propanoic acid]	10 to 100
O=C(O)C[C@H](c1ccc(OCc2cccc(-c3ccc(C(F)(F)F)cc3)c2)cc1)c1ccon1 [Example 3, (R)-3-(4-(3-(4-(Trifluoromethyl)phenyl)benzyloxy)phenyl)-3-(isoxazol-3-yl)propanoic acid]	1000 to 10000
CCOc1cc(Cl)ccc1-c1ccc(COc2ccc([C@H](CC(=O)O)c3ccon3)cc2)cc1 [Example 4, (S)-3-(4-(4-(4-Chloro-2-ethoxyphenyl)benzyloxy)phenyl)-3-(isoxazol-3-yl)propanoic acid]	10 to 100
CCOc1cc(Cl)ccc1-c1ccc(COc2ccc([C@@H](CC(=O)O)c3ccon3)cc2)cc1 [Example 5, (R)-3-(4-(4-(4-Chloro-2-ethoxyphenyl)benzyloxy)phenyl)-3-(isoxazol-3-yl)propanoic acid]	1000 to 10000
Cc1nc(-c2ccc(C(F)(F)F)cc2)sc1COc1ccc([C@@H](CC(=O)O)c2ccon2)cc1 [Example 6, (R)-3-(Isoxazol-3-yl)-3-(4-((4-methyl-2-(4-(trifluoromethyl)phenyl)thiazol-5-yl)methoxy)phenyl)propanoic acid]	100 to 1000
Cc1nc(-c2ccc(C(F)(F)F)cc2)sc1COc1ccc([C@H](CC(=O)O)c2ccon2)cc1 [Example 7, (S)-3-(Isoxazol-3-yl)-3-(4-((4-methyl-2-(4-(trifluoromethyl)phenyl)thiazol-5-yl)methoxy)phenyl)propanoic acid]	10 to 100
Cc1nc(-c2ccc(C(F)(F)F)cc2)sc1COc1ccc(C(CC(=O)O)C2=NOCC2)cc1 (stereo not shown) [Example 8]	100 to 1000
Cc1nc(-c2ccc(C(F)(F)F)cc2)sc1COc1ccc([C@H](CC(=O)O)C2=NOCC2)cc1 [Example 9, (S)-3-(Dihydroisoxazol-3-yl)-3-(4-((4-methyl-2-(4-(trifluoromethyl)phenyl)thiazol-5-yl)methoxy)phenyl)propanoic acid]	10 to 100
Cc1ccc(-c2nc(C)c(COc3ccc([C@H](CC(=O)O)C4=NOCC4)cc3)s2)cc1 [Example 10, (S)-3-(Dihydroisoxazol-3-yl)-3-(4-((4-methyl-2-(4-methylphenyl)thiazol-5-yl)methoxy)phenyl)propanoic acid]	100 to 1000
COc1ccc(-c2nc(COc3ccc([C@H](CC(=O)O)c4ccon4)cc3)no2)cc1 [Example 11, (S)-3-(Isoxazol-3-yl)-3-(4-((5-(4-methoxyphenyl)-1,2,4-oxadiazol-3-yl)methoxy)phenyl)propanoic acid]	1000 to 10000
O=C(O)C[C@@H](c1ccc(OCc2nc(-c3ccc(OCc4ccc(Cl)cc4)cc3)no2)cc1)c1ccon1 [Example 12, (S)-3-(4-((3-(4-(4-Chlorobenzyloxy)phenyl)-1,2,4-oxadiazol-5-yl)methoxy)phenyl)-3-(isoxazol-3-yl)propanoic acid]	100 to 1000
Cc1ccc(-c2ccc(COc3ccc([C@H](CC(=O)O)c4ccon4)cc3)s2)cc1 [Example 13, (S)-3-(Isoxazol-3-yl)-3-(4-((5-p-tolylthiophen-2-yl)methoxy)phenyl)propanoic acid]	10 to 100
CCCCc1ccc(-c2nc(C)c(COc3ccc([C@H](CC(=O)O)C4=NOCC4)cc3)s2)cc1 [Example 14, (S)-3-(4-((2-(4-Butylphenyl)-4-methylthiazol-5-yl)methoxy)phenyl)-3-(4,5-dihydroisoxazol-3-yl)propanoic acid]	10 to 100
Cc1ccc(-c2cc(COc3ccc([C@H](CC(=O)O)c4ccon4)cc3)c(C)o2)cc1 [Example 15, (S)-3-(Isoxazol-3-yl)-3-(4-((2-methyl-5-p-tolylfuran-3-yl)methoxy)phenyl)propanoic acid]	10 to 100
Cn1nc(-c2ccc(C(F)(F)F)cc2)cc1COc1ccc([C@H](CC(=O)O)c2ccon2)cc1 [Example 16, (S)-3-(Isoxazol-3-yl)-3-(4-((1-methyl-3-(4-(trifluoromethyl)phenyl)-1H-pyrazol-5-yl)methoxy)phenyl)propanoic acid]	100 to 1000
CC(C)(C)OC(=O)N1CC=C(c2cccc(COc3ccc([C@H](CC(=O)O)c4ccon4)cc3)c2)CC1 [Example 34, (S)-3-(4-(3-(1-(Tert-butoxycarbonyl)-1,2,3,6-tetrahydropyridin-4-yl)benzyloxy)phenyl)-3-(isoxazol-3-yl)propanoic acid]	1000 to 10000

The remaining lines, values ahead:

EC50 [nM]	SMILES
100 to 1000	Cc1ccc(COc2ccc([C@H](CC(=O)O)c3ccon3)cc2)cc1-c1ccc(CC(C)C)cc1 [Example 17, (S)-3-(4-(3-(4-Isobutyl)-phenyl-4-methylbenzyloxy)phenyl)-3-(isoxazol-3-yl)propanoic acid]
100 to 1000	CCCCc1ccc(-c2cc(COc3ccc([C@H](CC(=O)O)c4ccon4)cc3)ccc2C)cc1 [Example 18, (S)-3-(4-(3-(4-Butyl)-phenyl-4-methylbenzyloxy)phenyl)-3-(isoxazol-3-yl)propanoic acid]
1000 to 10000	CS(=O)(=O)c1cc(COc2ccc([C@H](CC(=O)O)c3ccon3)cc2)ccc1OC(F)(F)F [Example 19, (S)-3-(4-(3-(Methylsulfonyl)-4-(trifluoromethoxy)benzyloxy)-phenyl)-3-(isoxazol-3-yl)propanoic acid]
10 to 100	O=C(O)C[C@@H](c1ccc(OCc2ccc(OC(F)(F)F)c(C3=CCCC3)c2)cc1)c1ccon1 [Example 20, (S)-3-(4-(3-Cyclopentenyl-4-(trifluoromethoxy)benzyloxy)-phenyl)-3-(isoxazol-3-yl)propanoic acid]
10 to 100	O=C(O)C[C@@H](c1ccc(OCc2ccc(Cl)c(C(F)(F)F)c2)cc1)c1ccon1 [Example 21, (S)-3-(4-(4-Chloro-3-(trifluoromethyl)benzyloxy)phenyl)-3-(isoxazol-3-yl)propanoic acid]
10 to 100	O=C(O)C[C@@H](c1ccc(OCc2ccc(OC(F)(F)F)c(OC(F)(F)F)c2)cc1)c1ccon1 [Example 22, (S)-3-(4-(3,4-Bis(trifluoromethoxy)benzyloxy)phenyl)-3-(isoxazol-3-yl)propanoic acid]
10 to 100	O=C(O)C[C@@H](c1ccc(OCc2ccc(OC(F)(F)F)c(C3CCCC3)c2)cc1)c1ccon1 [Example 23, (S)-3-(4-(3-Cyclopentyl-4-(trifluoromethoxy)benzyloxy)-phenyl)-3-(isoxazol-3-yl)propanoic acid]
10 to 100	C=C(C)c1cc(COc2ccc([C@H](CC(=O)O)c3ccon3)cc2)ccc1OC(F)(F)F [Example 24, (S)-3-(4-(3-(Prop-1-en-2-yl)-4-(trifluoromethoxy)benzyloxy)-phenyl)-3-(isoxazol-3-yl)propanoic acid]
10 to 100	O=C(O)C[C@@H](c1ccc(OCc2ccc(OC(F)(F)F)c(Br)c2)cc1)c1ccon1 [Example 25, (S)-3-(4-(3-bromo-4-(trifluoromethoxy)benzyloxy)phenyl)-3-(isoxazol-3-yl)propanoic acid]
100 to 1000	CC(C)c1cc(COc2ccc([C@H](CC(=O)O)c3ccon3)cc2)ccc1C(C)(C)C [Example 26, (S)-3-(4-(4-tert-Butyl-3-isopropylbenzyloxy)phenyl)-3-(isoxazol-3-yl)propanoic acid]
100 to 1000	O=C(O)C[C@@H](c1ccc(OCc2cccc(NC(=O)c3ccc(C(F)(F)F)cc3)c2)cc1)c1ccon1 [Example 27, (S)-3-(4-(3-(4-(Trifluoromethyl)benzamido)benzyloxy)phenyl)-3-(isoxazol-3-yl)propanoic acid]
10 to 100	O=C(O)C[C@@H](c1ccc(OCc2ccc(C3=CCCC3)c(OC(F)(F)F)c2)cc1)c1ccon1 [Example 28, (S)-3-(4-(4-Cyclopentenyl-3-(trifluoromethoxy)benzyloxy)-phenyl)-3-(isoxazol-3-yl)propanoic acid]
1000 to 10000	CC(C)(C)C(=O)Nc1cccc(COc2ccc([C@H](CC(=O)O)c3ccon3)cc2)c1 [Example 30, (S)-3-(4-(3-Pivalamidobenzyloxy)phenyl)-3-(isoxazol-3-yl)propanoic acid]
10 to 100	O=C(O)C[C@@H](c1ccc(OCc2cccc(Sc3ccc(C(F)(F)F)cc3)c2)cc1)c1ccon1 [Example 31, (S)-3-(4-(3-(4-(Trifluoromethyl)phenylthio)benzyloxy)phenyl)-3-(isoxazol-3-yl)propanoic acid]
100 to 1000	O=C(O)C[C@@H](c1ccc(OCc2cccc(NS(=O)(=O)c3ccc(C(F)(F)F)cc3)c2)cc1)c1ccon1 [Example 32, (S)-3-(4-(3-(4-Trifluoromethylphenylsulfonamido)benzyloxy)-phenyl)-3-(isoxazol-3-yl)propanoic acid]
100 to 1000	O=C(O)C[C@@H](c1ccc(OCc2cccc(S(=O)(=O)c3ccc(C(F)(F)F)cc3)c2)cc1)c1ccon1 [Example 33, (S)-3-(4-(3-(4-(Trifluoromethyl)phenylsulfonyl)benzyloxy)-phenyl)-3-(isoxazol-3-yl)propanoic acid]
10 to 100	C=C(C)c1ccc(COc2ccc([C@H](CC(=O)O)c3ccon3)cc2)cc1OC(F)(F)F [Example 35, (S)-3-(4-(4-(Prop-1-en-2-yl)-3-(trifluoromethoxy)benzyloxy)-phenyl)-3-(isoxazol-3-yl)propanoic acid]
